In ChEMBL document CHEMBL1201862, “PubChem BioAssay data set” (2004):
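The compound was tested at five concentrations on cells cultured in 96-well plates, with a 48-hour exposure period. At the GI50, growth is halved.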 Active and inactive are the calls of the source. Cut-off read from the data, not from the text of the source: active = GI50 up to about 1.1 µM and inactive = higher.

How the values were obtained:
Experiment in all cases: NCI tumour cell line growth inhibition, 48 h
M14 = test system: M14
UACC-62 = test system: UACC-62
LXFL 529 = test system: LXFL 529
HL-60 = test system: HL-60
ACHN = test system: ACHN
SF-539 = test system: SF-539
EKVX = test system: EKVX
SN12C = test system: SN12C
SR = test system: SR
HCC 2998 = test system: HCC 2998
LOX IMVI = test system: LOX IMVI
OVCAR-4 = test system: OVCAR-4
786-0 = test system: 786-0
HCT-15 = test system: HCT-15
SK-OV-3 = test system: SK-OV-3
SK-MEL-28 = test system: SK-MEL-28
SK-MEL-2 = test system: SK-MEL-2
T47D = test system: T47D
MDA-N = test system: MDA-N
Hs-578T = test system: Hs-578T

Structure (SMILES) | GI50 (M14) | GI50 (UACC-62) | GI50 (LXFL 529) | GI50 (HL-60) | GI50 (ACHN) | GI50 (SF-539) | GI50 (EKVX) | GI50 (SN12C) | GI50 (SR) | GI50 (HCC 2998) | GI50 (LOX IMVI) | GI50 (OVCAR-4) | GI50 (786-0) | GI50 (HCT-15) [µM] | GI50 (SK-OV-3) | GI50 (SK-MEL-28) | GI50 (SK-MEL-2) | GI50 (T47D) | GI50 (MDA-N) | GI50 (Hs-578T)
Cc1ccc2c(ccc(/C=C\c3cc(C)c4cccnc4c3O)[n+]2C)c1 | 0.664 µM (active) | 0.535 µM (active) | 0.3 µM (active) | 0.454 µM (active) | 5.65 µM (inactive) | 1.64 µM (inactive) | 15.9 µM (inactive) | 2 µM (inactive) | 2.12 µM (inactive) | 1.81 µM (inactive) | 0.791 µM (active) | 14.4 µM (inactive) | 2.32 µM (inactive) | – | – | – | – | – | – | –
O=C1CC[C@@H](S(=O)(=O)c2ccccc2)[C@@H](/C=C/c2ccccc2)O1 | > 100 µM (inactive) | > 100 µM (inactive) | > 100 µM (inactive) | > 100 µM (inactive) | > 100 µM (inactive) | > 100 µM (inactive) | > 100 µM (inactive) | > 100 µM (inactive) | > 100 µM (inactive) | > 100 µM (inactive) | > 100 µM (inactive) | > 100 µM (inactive) | > 100 µM (inactive) | > 100 | > 100 µM (inactive) | > 100 µM (inactive) | – | – | – | –
Cc1ccc(NC(=O)CC/C(CC(=O)C(C)(C)C)=N\NC(=O)C[n+]2ccccc2)cc1C | > 100 µM (inactive) | > 100 µM (inactive) | > 100 µM (inactive) | 32 µM (inactive) | > 100 µM (inactive) | > 100 µM (inactive) | > 100 µM (inactive) | > 100 µM (inactive) | 78.5 µM (inactive) | > 100 µM (inactive) | 99.8 µM (inactive) | > 100 µM (inactive) | > 100 µM (inactive) | 53 | > 100 µM (inactive) | > 100 µM (inactive) | > 100 µM (inactive) | – | – | –
CCC1(O)C(=O)OCc2c1cc1n(c2=O)Cc2c-1nc1ccccc1c2OC (centres undefined) | < 0.0176 µM (active) | < 0.01 µM (active) | 0.434 µM (active) | < 0.01 µM (active) | < 0.01 µM (active) | < 0.01 µM (active) | 2.91 µM (inactive) | < 0.01 µM (active) | < 0.01 µM (active) | 0.218 µM (active) | < 0.01 µM (active) | 0.187 µM (active) | < 0.01 µM (active) | 0.117 | 0.0386 µM (active) | 0.32 µM (active) | 2.16 µM (inactive) | – | – | –
CCOC(=O)/C(C)=C(/O)C(=O)OCC | > 100 µM (inactive) | > 100 µM (inactive) | > 100 µM (inactive) | > 100 µM (inactive) | > 100 µM (inactive) | > 100 µM (inactive) | > 100 µM (inactive) | > 100 µM (inactive) | – | > 100 µM (inactive) | > 100 µM (inactive) | > 100 µM (inactive) | > 100 µM (inactive) | > 100 | > 100 µM (inactive) | > 100 µM (inactive) | > 100 µM (inactive) | – | – | –
COC(=O)C1=C(C[S+]([O-])c2ccc([N+](=O)[O-])cc2[N+](=O)[O-])C2C=CC1C2 (centres undefined) | 42.6 µM (inactive) | 18 µM (inactive) | 22.2 µM (inactive) | 16.2 µM (inactive) | 19.8 µM (inactive) | 24.3 µM (inactive) | 23.6 µM (inactive) | 23.7 µM (inactive) | – | 38.4 µM (inactive) | 13.5 µM (inactive) | 25.7 µM (inactive) | 27.1 µM (inactive) | 15.7 | 38.3 µM (inactive) | – | 41.4 µM (inactive) | – | – | –
N#CC(C#N)=c1ccc(=C2NCC3CCCN23)cc1 (centres undefined) | > 100 µM (inactive) | > 100 µM (inactive) | > 100 µM (inactive) | > 100 µM (inactive) | – | > 100 µM (inactive) | – | > 100 µM (inactive) | > 100 µM (inactive) | > 100 µM (inactive) | > 100 µM (inactive) | > 100 µM (inactive) | > 100 µM (inactive) | > 100 | > 100 µM (inactive) | – | > 100 µM (inactive) | – | – | –
Cc1ccc(C(=O)NCCN(C)C)c2nc3ccccc3cc12 | 2.69 µM (inactive) | 2.47 µM (inactive) | 2.15 µM (inactive) | 1.42 µM (inactive) | 0.45 µM (active) | – | 1.73 µM (inactive) | 0.809 µM (active) | – | 2.56 µM (inactive) | 0.561 µM (active) | 3.74 µM (inactive) | 2.32 µM (inactive) | 0.644 | 30.3 µM (inactive) | 1.95 µM (inactive) | 2.53 µM (inactive) | – | – | –
COC1O[C@@H]2COC(C)(C)O[C@@H]2C(=O)N1Nc1ccc([N+](=O)[O-])cc1 (some centres undefined) | > 100 µM (inactive) | > 100 µM (inactive) | 55.1 µM (inactive) | > 100 µM (inactive) | > 100 µM (inactive) | > 100 µM (inactive) | > 100 µM (inactive) | > 100 µM (inactive) | – | > 100 µM (inactive) | 31.9 µM (inactive) | > 100 µM (inactive) | 34.2 µM (inactive) | > 100 | > 100 µM (inactive) | > 100 µM (inactive) | > 100 µM (inactive) | – | – | –
COC(=O)[C@@]12C3=NO[C@]1(C(=O)OC)C(O[Si](C)(C)C(C)(C)C)C1OC(C)(C)OC1[C@@H]2[C@@H](OCc1ccccc1)CC3 (some centres undefined) | 43.9 µM (inactive) | > 100 µM (inactive) | 46.3 µM (inactive) | 3.11 µM (inactive) | – | > 100 µM (inactive) | > 100 µM (inactive) | > 100 µM (inactive) | – | > 100 µM (inactive) | 83.9 µM (inactive) | 23.9 µM (inactive) | > 100 µM (inactive) | 91 | > 100 µM (inactive) | > 100 µM (inactive) | > 100 µM (inactive) | – | – | –
Cc1ccc(C(=O)N2CCN(C(=O)c3ccc(C)cc3)c3ccccc32)cc1 | 4.57 µM (inactive) | 2.01 µM (inactive) | 6.5 µM (inactive) | 0.767 µM (active) | 9.59 µM (inactive) | 2.42 µM (inactive) | 20.2 µM (inactive) | 6.92 µM (inactive) | 0.547 µM (active) | 6.58 µM (inactive) | 6.44 µM (inactive) | 11.4 µM (inactive) | 3.41 µM (inactive) | 1.94 | 2.89 µM (inactive) | 5.2 µM (inactive) | 1.94 µM (inactive) | 6.43 µM (inactive) | 0.274 µM (active) | 2.47 µM (inactive)
CC(C)(C)CC(C)(C)NCC(O)COc1ccc(C(C)(C)c2ccc(OCC(O)CNC(C)(C)CC(C)(C)C)cc2)cc1 (centres undefined) | 0.279 µM (active) | 1.81 µM (inactive) | 0.357 µM (active) | 1.46 µM (inactive) | 1.77 µM (inactive) | 1.86 µM (inactive) | 1.72 µM (inactive) | 1.63 µM (inactive) | 0.366 µM (active) | 0.349 µM (active) | 0.429 µM (active) | 2.01 µM (inactive) | 1.06 µM (active) | 1.37 | 1.77 µM (inactive) | 0.615 µM (active) | 1.84 µM (inactive) | – | – | –
C=CCNC(=O)NCCCCC(NC(C)=O)C(=O)NCc1ccccc1 (centres undefined) | > 100 µM (inactive) | > 100 µM (inactive) | > 100 µM (inactive) | > 100 µM (inactive) | > 100 µM (inactive) | > 100 µM (inactive) | > 100 µM (inactive) | > 100 µM (inactive) | – | > 100 µM (inactive) | > 100 µM (inactive) | > 100 µM (inactive) | > 100 µM (inactive) | > 100 | > 100 µM (inactive) | > 100 µM (inactive) | > 100 µM (inactive) | – | – | –
COc1ccc2c(c1)Oc1cc(O)ccc1[C@@H]2c1ccccc1C(=O)NC(C)c1ccccc1 (some centres undefined) | 12.2 µM (inactive) | 13.6 µM (inactive) | 14.2 µM (inactive) | 11.3 µM (inactive) | 15.6 µM (inactive) | 16.3 µM (inactive) | 13.3 µM (inactive) | 14.6 µM (inactive) | – | 11.9 µM (inactive) | 15.9 µM (inactive) | – | 13.7 µM (inactive) | 13.7 | 23.1 µM (inactive) | 15.4 µM (inactive) | 18.7 µM (inactive) | – | – | –
COC(=O)N/N=C(\C(=O)Nc1cccc([N+](=O)[O-])c1)c1nc2ccc([N+](=O)[O-])cc2nc1O | 45.3 µM (inactive) | 12.4 µM (inactive) | 27.7 µM (inactive) | > 100 µM (inactive) | 24.7 µM (inactive) | 39.5 µM (inactive) | > 100 µM (inactive) | > 100 µM (inactive) | > 100 µM (inactive) | 33 µM (inactive) | 18.6 µM (inactive) | > 100 µM (inactive) | 53.1 µM (inactive) | – | > 100 µM (inactive) | > 100 µM (inactive) | – | – | – | –
Oc1cc(-c2ccc3c(c2)OCO3)nc2cc3c(cc12)OCO3 | 27.9 µM (inactive) | 36.9 µM (inactive) | 68.4 µM (inactive) | 24.5 µM (inactive) | 46.1 µM (inactive) | 23 µM (inactive) | > 100 µM (inactive) | 39.5 µM (inactive) | 6.35 µM (inactive) | 31.4 µM (inactive) | 57.8 µM (inactive) | > 100 µM (inactive) | 34.9 µM (inactive) | 40.3 | 30.9 µM (inactive) | 37.4 µM (inactive) | 31.1 µM (inactive) | – | – | –
